# Assay results reported in patent US11667649B2, “Heteroaromatic macrocyclic ether chemotherapeutic agents” (Nuvalent, Inc., priority 2020, dated 2023).
# What was measured:
# TRKA-wt kinase domain = target: T1, TRKA-wt kinase domain (Homo sapiens, UniProt P04629); assay: Biochemical kinase assay, TRKA-wt; conditions: 2 mM ATP substrate solution, read-out: Ki^app TRKA-wt
# T1 construct: TRKA-wt (1 nM, BPS Bio, 40280) kinase domains in buffer; purchased BPS Bio 40280
# In short: (§1)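 Kinase domains (in kinase solution: ROS1-G2032R 0.5 nM, ROS1-wt 0.6 nM, TRKA 1 nM, ALK L1196M/G1202R 3 nM) were mixed with compound and a substrate solution of 2 mM ATP plus 26 μM fluorogenic AQT0101 (ALK, ROS1) or AQT0104 (TRKA) in HEPES pH 7.5/MgCl2. Fluorescence was followed for 120 min at 30° C; Ki^app was obtained by Morrison fit of initial rates.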
# ROS1-wt kinase domain = target: T2, ROS1-wt kinase domain (Homo sapiens, UniProt P08922); assay: Biochemical kinase assay, ROS1-wt; conditions: 2 mM ATP substrate solution, read-out: Ki^app ROS1-wt
# T2 construct: TRKA-wt (1 nM, BPS Bio, 40280) kinase domains in buffer; purchased Carna 08-163
# In short: as §1
# [1] = target: T3, ALK L1196M/G1202R kinase domain (Homo sapiens, UniProt Q9UM73, G1202R/L1196M); assay: Biochemical kinase assay, ALK L1196M/G1202R; conditions: 2 mM ATP substrate solution, read-out: Ki^app ALK-L1196M-G1202R
# T3 construct: TRKA-wt (1 nM, BPS Bio, 40280) kinase domains in buffer; purchased SignalChem A19-12NG
# In short: as §1
# [2] = target: T4, ROS1-G2032R kinase domain (Homo sapiens, UniProt P08922, G2032R); assay: Biochemical kinase assay, ROS1-G2032R; conditions: 2 mM ATP substrate solution, read-out: Ki^app ROS1-G2032R
# T4 construct: TRKA-wt (1 nM, BPS Bio, 40280) kinase domains in buffer; purchased SignalChem R14-12BG
# In short: as §1
# ALK-wt kinase domain = target: T5, ALK-wt kinase domain (Homo sapiens, UniProt Q9UM73); assay: Biochemical kinase assay, ALK-wt; conditions: 2 mM ATP substrate solution, read-out: Ki^app ALK-wt
# T5 construct: TRKA-wt (1 nM, BPS Bio, 40280) kinase domains in buffer; purchased Carna 08-518
# In short: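 Apparent Ki values come from fitting initial reaction rates against inhibitor concentration to the Morrison equation. Rates were taken from the linear phase of fluorogenic substrate phosphorylation (AQT0101 for ALK and ROS1, AQT0104 for TRKA; 26 μM in substrate solution with 2 mM ATP), monitored at 485 nm over 120 min at 30° C.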
Ki (TRKA-wt kinase domain) [nM],Ki (ROS1-wt kinase domain) [nM],Ki [1] [nM],Ki [2] [nM],Ki (ALK-wt kinase domain) [nM],Compound
> 500,< 50,< 50,< 50,< 50,C[C@H]1Oc2cc(cnc2N)-c2c(C#N)ncn2Cc2ccnn2-c2ccc(F)cc21 [Compound 58]
< 50,< 50,< 50,< 50,< 50,CCc1noc2c1-c1cnc(N)c(n1)O[C@H](C)c1cc(F)ccc1-c1nn(C)cc1C2 [Compound 162]
50 to 500,< 50,50 to 500,< 50,< 50,CC1Oc2cc(cnc2N)-c2c(cnn2C)Cc2cnn(C)c2-c2ccc(F)cc21 (stereo not shown) [Compound 2]
> 500,< 50,< 50,< 50,< 50,Cc1nn(CC2CC2)c2c1Cc1c(nn(C)c1Cl)-c1ccc(F)cc1[C@@H](C)Oc1cc-2cnc1N [Compound 54]
50 to 500,< 50,< 50,< 50,< 50,C[C@H]1Oc2cc(cnc2N)-c2c(C#N)nn(C)c2Cc2scnc2-c2ccc(F)cc21 [Compound 94]
50 to 500,< 50,< 50,< 50,< 50,C[C@H]1Oc2cc(cnc2N)-c2c(nnn2CC2CC2)Cc2cc(C(F)F)nn2-c2ccc(F)cc21 [Compound 122]
50 to 500,< 50,50 to 500,50 to 500,< 50,CCn1ncc2c1-c1ccc(F)cc1C(C)Oc1nc(cnc1N)-c1c(cnn1C)C2 (stereo not shown) [Compound 165]
> 500,< 50,< 50,< 50,< 50,Nc1ncc2cc1OCc1cc(F)ccc1-n1nc(C(F)F)cc1Cc1cnn(CC3CC3)c1-2 [Compound 138]
< 50,< 50,< 50,< 50,< 50,CCn1ncc2c1-c1cnc(N)c(c1)O[C@H](C)c1cc(F)ccc1-c1nn(C)cc1C2 [Compound 1]
50 to 500,< 50,50 to 500,50 to 500,< 50,C[C@H]1Oc2cc(cnc2N)-c2c(C(F)F)cnn2Cc2cc(F)cnc2-c2ccc(F)cc21 [Compound 17]
> 500,< 50,< 50,50 to 500,< 50,C[C@H]1Oc2cc(cnc2N)-c2c(c(Cl)nn2CC2CC2)Cc2cn(C)nc2-c2ccc(F)cc21 [Compound 133]
50 to 500,< 50,< 50,< 50,< 50,C[C@H]1Oc2cc(cnc2N)-c2c(cnn2CC2CC2)Cc2cc(C(F)F)nn2-c2ccc(F)cc21 [Compound 130]
50 to 500,< 50,< 50,< 50,< 50,C[C@H]1Oc2cc(cnc2N)-c2c(C#N)nn(C)c2Cc2cc(Cl)nn2-c2ccc(F)cc21 [Compound 103]
> 500,< 50,< 50,< 50,< 50,CC1Oc2cc(cnc2N)-c2c(n[nH]c2C#N)Cc2cnn(C)c2-c2ccc(F)cc21 (stereo not shown) [Compound 168]
50 to 500,< 50,< 50,< 50,< 50,C[C@H]1Oc2cc(cnc2N)-c2c(cnn2CC2CC2)Cc2cc(C(F)(F)F)nn2-c2ccc(F)cc21 [Compound 91]
50 to 500,< 50,< 50,< 50,< 50,CCn1nc(C#N)c2c1-c1cnc(N)c(c1)O[C@H](C)c1cc(F)ccc1-c1nn(C)cc1C2 [Compound 156]
< 50,< 50,< 50,< 50,< 50,CCn1ncc2c1-c1cnc(N)c(c1)O[C@H](C)c1cc(F)ccc1-c1ncc(OC)cc1C2 [Compound 149]
> 500,< 50,< 50,< 50,< 50,C[C@H]1Oc2cc(cnc2N)-c2c(C#N)ncn2Cc2cccnc2-c2ccc(F)cc21 [Compound 12]
> 500,< 50,< 50,< 50,< 50,CCn1ncc2c1-c1cnc(N)c(c1)OCc1cc(F)ccc1-n1nccc1C2 [Compound 41]

Ki (TRKA-wt kinase domain) [nM],Ki (ROS1-wt kinase domain) [nM],Ki [1] [nM],Ki [2] [nM],Ki (ALK-wt kinase domain) [nM],Compound
> 500,< 50,< 50,< 50,< 50,CCn1ncc2c1-c1cnc(N)c(c1)OCc1cc(F)ccc1-n1nc(C(F)(F)F)cc1C2 [Compound 92]
< 50,< 50,< 50,< 50,< 50,CCn1ncc2c1-c1cnc(N)c(c1)O[C@H](C)c1cc(F)ccc1-n1nc(C(F)F)cc1C2 [Compound 102]
< 50,< 50,< 50,< 50,< 50,CCn1ncc2c1-c1cnc(N)c(c1)O[C@H](C)c1cc(F)ccc1-c1nccc(OC)c1C2 [Compound 151]
50 to 500,< 50,< 50,< 50,< 50,C[C@H]1Oc2cc(cnc2N)-c2c(C3CCC3)noc2Cc2cn(C)nc2-c2ccc(F)cc21 [Compound 26]
50 to 500,< 50,< 50,< 50,< 50,C[C@H]1Oc2cc(cnc2N)-c2c(C#N)nn(C)c2Cc2cccnc2-c2ccc(F)cc21 [Compound 100]
50 to 500,< 50,< 50,< 50,< 50,CCn1ncc2c1-c1cnc(N)c(n1)OC(C)c1cc(F)ccc1-c1nccn1C2 (stereo not shown) [Compound 163]
> 500,< 50,50 to 500,< 50,< 50,CC1Oc2cc(cnc2N)-c2c(cnn2CCF)Cn2ccnc2-c2ccc(F)cc21 (stereo not shown) [Compound 39]
> 500,< 50,50 to 500,50 to 500,< 50,CC1Oc2cc(cnc2N)-c2c(C#N)ncn2Cc2cnn(C)c2-c2ccc(F)cc21 (stereo not shown) [Compound 167]
> 500,< 50,< 50,< 50,< 50,C[C@H]1Oc2cc(cnc2N)-c2c(C#N)ncn2Cc2cc(F)cnc2-c2ccc(F)cc21 [Compound 63]
> 500,< 50,< 50,50 to 500,< 50,CCc1nn(C)c2c1-c1cnc(N)c(c1)OCc1cc(F)ccc1-c1nn(C)cc1C2 [Compound 176]
< 50,< 50,< 50,< 50,< 50,Cc1cc2n(n1)-c1ccc(F)cc1[C@@H](C)Oc1cc(cnc1N)-c1c(cnn1CC1CC1)C2 [Compound 109]
> 500,< 50,< 50,< 50,< 50,Cc1nc2c(s1)Cn1cnc(C#N)c1-c1cnc(N)c(c1)O[C@H](C)c1cc(F)ccc1-2 [Compound 65]
50 to 500,< 50,< 50,< 50,< 50,CCc1snc2c1-c1cnc(N)c(c1)O[C@H](C)c1cc(F)ccc1-c1nn(C)cc1C2 [Compound 88]
50 to 500,< 50,< 50,< 50,< 50,COc1cc2n(n1)-c1ccc(F)cc1[C@@H](C)Oc1cc(cnc1N)-c1c(c(C)nn1CC1CC1)C2 [Compound 124]
50 to 500,< 50,< 50,< 50,< 50,CCn1nnc2c1-c1cnc(N)c(c1)O[C@H](C)c1cc(F)ccc1-c1sncc1C2 [Compound 93]
50 to 500,< 50,< 50,< 50,< 50,C[C@H]1Oc2cc(cnc2N)-c2c(nnn2CC2CC2)Cc2cc(Cl)nn2-c2ccc(F)cc21 [Compound 108]
< 50,< 50,< 50,< 50,< 50,CCn1ncc2c1-c1cnc(N)c(c1)O[C@H](C)c1cc(F)ccc1-c1ncccc1C2 [Compound 3]
50 to 500,< 50,< 50,< 50,< 50,CCn1ncc2c1-c1cnc(N)c(c1)OCc1cc(F)ccc1-n1nc(C)cc1C2 [Compound 69]
50 to 500,< 50,> 500,50 to 500,< 50,CC1Oc2cc(cnc2N)-c2c(nn(C)c2C#N)Cc2cnccc2-c2ccc(F)cc21 (stereo not shown) [Compound 59]
